In data set [1] the test system is KM12. In words: Anticancer activity against human KM12 cells assessed as inhibition of cell growth at 10 uM incubated for 48 hrs by SRB assay. The class given is functional. As to conditions: KM12, 48 h, values are per cent of control. On the technique in general: Sulforhodamine B stains cellular protein and so reports cell mass.
In data set [2] the test system is SK-MEL-5. In words: Anticancer activity against human SK-MEL-5 cells assessed as total growth inhibition incubated for 48 hrs by SRB assay. The class given is functional.
Data set [3] relates to 786-0. In words: Anticancer activity against human 786-0 cells assessed as lethality incubated for 48 hrs by SRB assay. The format is functional. Conditions: read-out: LC50 (the source's name).
Data set [4] has as its system ACHN. In words: Anticancer activity against human ACHN cells assessed as lethality incubated for 48 hrs by SRB assay. The class given is functional. Conditions: read-out: LC50 (the source's name).
Data set [5] relates to HCT-116. In words: Induction of DNA damage in human HCT-116 cells assessed as olive tail moment at 1 uM incubated for 2 hrs by alkaline Comet assay. The class given is functional.
Data set [6] relates to CAKI-1. In words: Anticancer activity against human CAKI-1 cells assessed as inhibition of cell growth at 10 uM incubated for 48 hrs by SRB assay. The class given is functional. As to conditions: CAKI-1, 48 h, values are per cent of control.
Data set [7] deals with Lymphocyte. In words: Induction of DNA damage in mitogen activated human peripheral blood lymphocytes assessed as tail DNA at 1.5 uM incubated for 24 hrs by alkaline Comet assay. The class given is toxicity, cell-based.
Data set [8] concerns Jurkat. In words: Induction of DNA damage in human Jurkat cells assessed as proapoptotic inter-nucleosomal fragmentation at 1.5 uM for 24 hrs by Agarose gel electrophoresis analysis. The format is functional, cell-based.
The subject of data set [9] is Jurkat. In words: Induction of apoptosis in human Jurkat cells assessed as increase in cleaved capase-3 level at 1.5 uM for 24 hrs by Western blot analysis. The class given is functional, cell-based. On the technique in general: Immunoblotting shows a protein as a band on a membrane.
The test system of data set [10] is DU-145. In words: Anticancer activity against human DU-145 cells assessed as total growth inhibition incubated for 48 hrs by SRB assay. The class given is functional.
Data set [11] relates to Lymphocyte. In words: Induction of DNA damage in mitogen activated human peripheral blood lymphocytes assessed as olive tail moment at 1.5 uM incubated for 24 hrs by alkaline Comet assay. The format is toxicity, cell-based.
In data set [12] the test system is Salmon testes DNA. In words: Binding affinity to single stranded salmon sperm DNA assessed as increase in DNA oxidation level by measuring net change in absorbance at 10 uM incubated for 1 hr by UV based spectroscopic method. As to conditions: Salmo salar. The class given is nucleic-acid assay.
Data set [13] deals with Jurkat. In words: Induction of DNA damage in human Jurkat cells assessed as tail DNA at 1.5 uM incubated for 24 hrs by alkaline Comet assay. The format is functional.
The subject of data set [14] is SK-MEL-5. In words: Anticancer activity against human SK-MEL-5 cells assessed as lethality incubated for 48 hrs by SRB assay. As to conditions: read-out: LC50 (the source's name). The class given is functional.
Data set [15] relates to Jurkat. In words: Induction of apoptosis in human Jurkat cells assessed as increase in Bax level at 1.5 uM for 24 hrs by Western blot analysis. The format is functional, cell-based.
Data set [16] deals with KM12. In words: Anticancer activity against human KM12 cells assessed as total growth inhibition incubated for 48 hrs by SRB assay. The format is functional.
The subject of data set [17] is OVCAR-5. In words: Anticancer activity against human OVCAR-5 cells assessed as lethality incubated for 48 hrs by SRB assay. The class given is functional. As to conditions: read-out: LC50 (the source's name).
Data set [18] deals with MOLT-4. In words: Anticancer activity against human MOLT-4 cells assessed as lethality incubated for 48 hrs by SRB assay. The format is functional. As to conditions: read-out: LC50 (the source's name).
In data set [19] the test system is HCT-116. In words: Induction of DNA damage in human HCT-116 cells assessed as tail DNA at 1 uM incubated for 2 hrs by alkaline Comet assay. The format is functional.
In data set [20] the test system is HCT-116. In words: Induction of DNA damage in human HCT-116 […] assessed as tail DNA at 1 uM incubated for 2 hrs in dark by Comet assay. The class given is functional.
Data set [21] deals with A549. In words: Anticancer activity against human A549 cells assessed as growth inhibition incubated for 48 hrs by SRB assay. The class given is functional.
Data set [22] deals with Jurkat. In words: Induction of apoptosis in human Jurkat cells assessed as decrease in Bcl-2 level at 1.5 uM for 24 hrs by Western blot analysis. The format is functional, cell-based.
Data set [23] concerns UO-31. In words: Anticancer activity against human UO-31 cells assessed as lethality incubated for 48 hrs by SRB assay. The format is functional. Conditions: read-out: LC50 (the source's name).
For data set [24], the system named is Jurkat. In words: Induction of DNA damage in human Jurkat cells assessed as olive tail moment at 1.5 uM incubated for 24 hrs by alkaline Comet assay. The format is functional.
Data set [25] deals with Salmon testes DNA. In words: Binding affinity to double stranded salmon sperm DNA assessed as increase in DNA oxidation level by measuring net change in absorbance at 10 uM incubated for 1 hr by UV based spectroscopic method. The class given is nucleic-acid assay. Conditions: Salmo salar.
In data set [26] the test system is HCT-116. In words: Induction of DNA damage in human HCT-116 cell lysate assessed as olive tail moment at 1 uM incubated for 2 hrs in dark by Comet assay. The format is functional.
In data set [27] the test system is Jurkat. In words: Induction of apoptosis in human Jurkat cells assessed as decrease in Bcl-2 level at 3.5 uM for 24 hrs by Western blot analysis. The class given is functional, cell-based.
Data set [28] has as its system OVCAR-3. In words: Anticancer activity against human OVCAR-3 cells assessed as inhibition of cell growth at 10 uM incubated for 48 hrs by SRB assay. The format is functional. Conditions: OVCAR-3, 48 h, values are per cent of control.
Data set [29] has as its system Jurkat. In words: Induction of DNA damage in human Jurkat cells assessed as proapoptotic inter-nucleosomal fragmentation at 3.5 uM for 24 hrs by Agarose gel electrophoresis analysis. The class given is functional, cell-based.
The test system of data set [30] is Jurkat. In words: Induction of DNA damage in human Jurkat cells assessed as tail DNA at 3.5 uM incubated for 24 hrs by alkaline Comet assay. The class given is functional.
In data set [31] the test system is Lymphocyte. In words: Induction of DNA damage in mitogen activated human peripheral blood lymphocytes assessed as tail DNA at 3.5 uM incubated for 24 hrs by alkaline Comet assay. The format is toxicity, cell-based.
In data set [32] the test system is Lymphocyte. In words: Induction of DNA damage in mitogen activated human peripheral blood lymphocytes assessed as olive tail moment at 3.5 uM incubated for 24 hrs by alkaline Comet assay. The class given is toxicity, cell-based.
Data set [33] deals with NCI-H522. In words: Anticancer activity against human NCI-H522 cells assessed as inhibition of cell growth at 10 uM incubated for 48 hrs by SRB assay. The class given is functional. Conditions: NCI-H522, 48 h, values are per cent of control.
The subject of data set [34] is Jurkat. In words: Induction of apoptosis in human Jurkat cells assessed as increase in Bax level at 3.5 uM for 24 hrs by Western blot analysis. The format is functional, cell-based.
Data set [35] concerns Jurkat. In words: Induction of DNA damage in human Jurkat cells assessed as olive tail moment at 3.5 uM incubated for 24 hrs by alkaline Comet assay. The format is functional.
The subject of data set [36] is Jurkat. In words: Induction of apoptosis in human Jurkat cells assessed as increase in cleaved capase-3 level at 3.5 uM for 24 hrs by Western blot analysis. The class given is functional, cell-based.

Calls of active or inactive are those of the source. No cut-off for these calls is given here.

Turning to `O=C1CC(N2C(=O)/C(=C/C(Cl)=C/c3ccc([N+](=O)[O-])cc3)SC2=S)C(=O)N1c1ccc(O)cc1` (stereo not drawn), the growth, % of control at 10 µM is -72.4% in data set [1] and -71.4% in data set [6]. The TGI in data set [2] amounted to 3.66 µM; in data set [10], 3.37 µM; in data set [16] it was 4.64 µM. For the same compound, the CC50 is 25.5 µM in data set [3]; 5.59 µM in data set [4]; 6.97 µM in data set [14]; 7.16 µM in [17]; more than 100 µM in data set [18]; 5.78 µM in data set [23]. Moreover, the Activity in data set [5] turned out to be 9.84%; in [7] it was 2.92%; in data set [11], 0.28%; in data set [13], 53.4%; in data set [19], 26.5%; in [20], 13.1%. For the same compound, the Activity is given as 8.63% in data set [24] and 3.05% in data set [26]. The outcome in data set [8], in data set [9], in [12], in data set [15], in [22] and in data set [25] was Active. The GI50 in data set [21] amounted to 3.11 µM.

Regarding `O=C1CC(N2C(=O)/C(=C/C(Cl)=C/c3ccc([N+](=O)[O-])cc3)SC2=S)C(=O)N1c1ccc(Cl)cc1` (stereo not drawn), the outcome in data set [27], in data set [29], in [34] and in data set [36] was Active. Moreover, the growth, % of control at 10 µM in data set [28] was -35.4%; in [33] it was -26.4%. Moreover, the Activity in [30] came to 48.35%; in data set [31] it was 4.25%; in data set [32], 0.86%; in data set [35], 18.1%. The CC50 was 62.6 µM in data set [18] and more than 100 µM in data set [23].

The TGI is the concentration at which net growth stops. One may read the GI50 as the concentration that inhibits growth by half.

For the origin of these results see ChEMBL document CHEMBL5113392, “Novel hybrid pyrrolidinedione-thiazolidinones as potential anticancer agents: Synthesis and biological evaluation” (Eur J Med Chem, 2022).
